According to PubChem BioAssay (NCI):
Several values for one entry are separate records, joined by “and”; a condition that tells them apart may be missing. Equal entries are not always repeated.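 Cultured in 96-well plates, cells were exposed to test compound for 48 hours across five concentrations. At the GI50, growth is halved. The concentration for full growth arrest is given as TGI.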

Key:
Assay in all cases: NCI tumour cell line growth inhibition, 48 h
[1] = test system: SNB-19 CNS
[2] = test system: SN12C renal
[3] = test system: BT-549 breast
[4] = test system: HOP-92 NSCLC
[5] = test system: TK-10 renal
[6] = test system: MDA-MB-435
[7] = test system: UO-31 renal
[8] = test system: SF-268 CNS
[9] = test system: HCT-15 colon
[10] = test system: LOX IMVI melanoma

SMILES: COc1c(OC(C)C)cc2cc(O)c(C(=O)NC3Cc4ccc(c(Cl)n4)O[C@@H]4C=C5C#C/C(=C\C#CC6OC56C4OC4CC(C)(O)C(O)C(C)O4)C(OC4CC(O)C(N(C)C)C(C)O4)COC3=O)cc2c1OC (stereo partly specified)
- GI50 [1]: 17.7 µM and 0.956 µg/mL
- TGI [1]: > 36.3 µM and 37.5 µg/mL
- GI50 [2]: 17.7 µM and 0.718 µg/mL
- TGI [2]: > 36.3 µM and 9.82 µg/mL
- TGI [3]: > 36300 nM
- GI50 [4]: 0.482 µg/mL
- TGI [4]: > 36.3 µM and 2.94 µg/mL
- GI50 [5]: > 36.3 µM and 37.5 µg/mL
- TGI [5]: > 36.3 µM and 37.5 µg/mL
- TGI [6]: > 36300 nM
- GI50 [7]: > 36.3 µM and 6.42 µg/mL
- TGI [7]: > 36.3 µM and 37.5 µg/mL
- GI50 [8]: 11.5 µM and 0.838 µg/mL
- TGI [8]: > 36.3 µM and 17.3 µg/mL
- GI50 [9]: > 36.3 µM and 9.57 µg/mL
- TGI [9]: > 36.3 µM and 37.5 µg/mL
- GI50 [10]: 0.529 µg/mL
- TGI [10]: 17.8 µg/mL

SMILES: COc1cc(-c2ncn(/C=C\c3nnco3)n2)cc(C(F)(F)F)c1
- GI50 [1]: 175 nM
- TGI [1]: > 100000 nM
- GI50 [2]: 723 nM
- TGI [2]: > 83200 nM
- GI50 [3]: 125 nM
- TGI [3]: 14300 nM
- GI50 [4]: 952 nM
- TGI [4]: 46500 nM
- GI50 [5]: 726 nM
- TGI [5]: 23000 nM
- GI50 [6]: 89.4 nM
- TGI [6]: 3330 nM
- GI50 [7]: 247 nM
- TGI [7]: > 100000 nM
- GI50 [8]: 89.1 nM
- TGI [8]: 23900 nM
- GI50 [9]: 282 nM
- TGI [9]: > 100000 nM
- GI50 [10]: 90.6 nM
- TGI [10]: 2020 nM

SMILES: CC(C)N(Cc1ccc(F)cc1)c1ccc(CO)c(Cl)c1
- GI50 [1]: 12200 nM
- TGI [1]: 25300 nM
- GI50 [2]: 10800 nM
- TGI [2]: 23200 nM
- GI50 [3]: 12300 nM
- TGI [3]: 25700 nM
- GI50 [4]: 205 nM
- TGI [4]: 4220 nM
- GI50 [5]: 28.3 nM
- TGI [5]: 173 nM
- GI50 [6]: 15000 nM
- TGI [6]: 29500 nM
- GI50 [7]: 732 nM
- TGI [7]: 14200 nM
- GI50 [8]: 13100 nM
- TGI [8]: 26400 nM
- GI50 [9]: 5230 nM
- TGI [9]: 20700 nM
- GI50 [10]: 8350 nM
- TGI [10]: 21600 nM

SMILES: O=C(c1ccco1)c1c(C(F)(F)F)n([O-])c2cc(F)c(F)cc2[n+]1=O
- GI50 [1]: 1020 nM
- TGI [1]: 2350 nM
- GI50 [2]: 307 nM
- TGI [2]: 1010 nM
- GI50 [3]: 163 nM
- TGI [3]: 389 nM
- GI50 [4]: 1490 nM
- TGI [4]: 3210 nM
- GI50 [5]: 204 nM
- TGI [5]: 1020 nM
- GI50 [6]: 553 nM
- TGI [6]: 3450 nM
- GI50 [7]: 546 nM
- TGI [7]: 1030 nM
- GI50 [8]: 290 nM
- TGI [8]: 1090 nM
- GI50 [9]: < 46.4 nM
- TGI [9]: 149 nM
- TGI [10]: 459 nM

SMILES: COc1ccc(-c2[nH]c3ccccc3c2/C=C(\C#N)S(=O)(=O)c2ccccc2)cc1
- GI50 [1]: 844 nM
- TGI [1]: > 100000 nM
- GI50 [2]: 1340 nM
- TGI [2]: > 100000 nM
- GI50 [3]: 1630 nM
- TGI [3]: > 76000 nM
- GI50 [4]: 1430 nM
- TGI [4]: > 20600 nM
- GI50 [5]: 3650 nM
- TGI [5]: > 100000 nM
- GI50 [6]: 204 nM
- TGI [6]: 642 nM
- GI50 [7]: 1880 nM
- GI50 [8]: 1130 nM
- TGI [8]: > 45900 nM
- GI50 [9]: 552 nM
- TGI [9]: > 48000 nM
- GI50 [10]: 1230 nM
- TGI [10]: > 100000 nM
